# Results published in the supplement of paper PMC6580486.
# System: U23674 (mouse alveolar rhabdomyosarcoma primary culture)
# 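Further: alveolar rhabdomyosarcoma tumor culture.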
row,SMILES,IC50 cell viability
1,CN(C)CCNC(=O)Nc1ccc(N(C)c2ccnc(Nc3ccc(CS(C)(=O)=O)cc3)n2)cc1,> 10 µM
2,N#Cc1c(NC(=O)c2cccc3ccccc23)sc2c1CCCC2,3.5 µM
3,COc1cc2ncnc(Nc3ccc(C)c(O)c3)c2cc1OC,> 10 µM
4,CNC(=O)c1cncc(/C=C/c2ccccc2C)c1,> 10 µM
5,Fc1ccc(-c2ncn(C3CCNCC3)c2-c2ccnc(Oc3ccc(F)c(F)c3)n2)cc1,6.2 µM
6,Fc1cccc(COc2ccc(Nc3ncnc4sc(-c5cccs5)cc34)cc2Cl)c1,> 10 µM
7,O=C(Nc1n[nH]c2nc(-c3ccc(O)cc3)c(Br)cc12)C1CC1,> 10 µM
8,Cc1cccc(Nc2ncc(-c3ccccc3)o2)c1,> 10 µM
9,c1ccc(Oc2ccc(Nc3ncc(-c4ccccc4)o3)cc2)cc1,> 10 µM
10,NS(=O)(=O)c1ccc(Nc2ncc(-c3ccccc3)o2)cc1,> 10 µM
11,COC(=O)Nc1nc2ccc(Oc3ccc(NC(=O)Nc4cccc(Cl)c4)cc3)cc2[nH]1,> 10 µM
12,CCn1c(-c2nonc2N)nc2c(C#CC(C)(C)O)ncc(OCC3CCCN3)c21 (stereo not given),5.2 µM
13,CC1=C(C(=O)Nc2ccc3[nH]ncc3c2)C(c2ccc(F)cc2)NC(=O)N1 (stereo not given),> 10 µM
14,C[C@@H](Oc1cc(-n2cnc3ccc(OC[C@@H](O)CO)cc32)sc1C(N)=O)c1ccccc1Cl,5.4 µM
15,CCn1cc(-c2ccnc3[nH]ccc23)c(-c2cccc(NC(=O)Nc3ccc(OCc4ccccc4)cc3)c2)n1,> 10 µM
16,NC(=O)c1cc(-c2ccc(F)cc2)cc(-c2ccncc2)c1N,> 10 µM
17,COc1cccc(-n2ncc3c(N/N=C/c4ccc(C)cc4)ncnc32)c1,> 10 µM
18,CCn1c(-c2nonc2N)nc2c(C#CCN)ncc(OCCCN)c21,> 10 µM
19,CCc1nn2ncccc2c1-c1ccnc(NC2CC2)n1,> 10 µM
20,CCn1c(-c2nonc2N)nc2cnc(Oc3cccc(NC(=O)c4ccc(N(C)C)cc4)c3)cc21,> 10 µM

row,SMILES,IC50 cell viability
1,C[C@@H](Oc1cc(-n2cnc3ccc(OCC4CCN(C)CC4)cc32)sc1C(N)=O)c1ccccc1C(F)(F)F,0.1 µM
2,Cc1ccc(-c2cc3c(NC(=O)C4CC4)ncnc3o2)cc1,> 10 µM
3,Fc1ccc(-c2cc(-c3cn[nH]c3-c3ccccn3)ccn2)cc1,> 10 µM
4,O=C1Nc2ccc(C(=O)c3ccco3)cc2/C1=C/c1cc(Cl)c(O)c(Cl)c1,> 10 µM
5,CS(=O)(=O)Nc1ccc(-c2cc(-c3ccccc3)cc(C(N)=O)c2N)cc1,> 10 µM
6,CCCN(CCS(C)(=O)=O)Cc1ccc(-c2ccc3ncnc(Nc4ccc(OCc5cccc(F)c5)c(Cl)c4)c3c2)o1,> 10 µM
7,CCCNc1cccc(-n2ncc3c(N/N=C/c4ccncc4)ncnc32)c1,> 10 µM
8,Cc1cc(O)cc(C)c1/C=C/c1cncc(C(=O)N(C)C)c1,> 10 µM
9,O=C(Nc1n[nH]c2cc(-c3cc(F)ccc3F)ccc12)C1CC1,> 10 µM
10,C[C@@H](Oc1cc(-n2cnc3ccc(OCC4CCN(C)CC4)cc32)sc1C(N)=O)c1ccccc1Cl,1.3 µM
11,Fc1ccc(-c2c(-c3ccncc3)nc3n2CCS3)cc1,> 10 µM
12,c1ccc(Cc2nc3ccc(Nc4ncnc5ccccc45)cc3[nH]2)cc1,> 10 µM
13,COc1cc2ncnc(Nc3ccc4c(cnn4Cc4ccccc4)c3)c2cc1OC,> 10 µM
14,CS(=O)(=O)CCNCc1cc(-c2cc3c(Nc4ccc(OCc5cccc(F)c5)c(Cl)c4)ncnc3s2)cs1,> 10 µM
15,CC1=C(C(=O)Nc2ccc3[nH]ncc3c2)C(c2ccc3ccccc3c2)CC(=O)N1 (stereo not given),> 10 µM
16,N#Cc1c(NC(=O)c2ccc(F)cc2)sc2c1CCCC2,> 10 µM
17,FC(F)(F)c1ccc(-c2nn3ncccc3c2-c2ccnc(Nc3ccc4c(c3)OCCO4)n2)cc1,> 10 µM
18,COc1cc(C)c(NC(=O)CN(C)C)cc1Nc1nc(Nc2cccc(F)c2C(N)=O)c2cc[nH]c2n1,> 10 µM
19,CCn1c(-c2nonc2N)nc2ccncc21,> 10 µM
20,CC(C)c1ccc(-c2cc(-c3cn[nH]c3-c3ccccn3)ccn2)cc1,> 10 µM
